According to publication PMC10504751, “Chalcone/1,3,4-Oxadiazole/Benzimidazole hybrids as novel anti-proliferative agents inducing apoptosis and inhibiting EGFR & BRAFV^600E” (BMC Chemistry, 2023):

Legend:
Experiment in all cases: NCI one-dose SRB anti-proliferative screen
Assay type in all cases: cell-based
[1] = test system: UACC-62; conditions: Homo sapiens; UACC-62 (Melanoma), NCI one dose 10 µM; read-out: Cell growth inhibition %
Procedure, shortened: (§1)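 SRB-based colorimetric growth readout; compounds dosed once at 10 µM.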

[2] = test system: SF-539; conditions: Homo sapiens; SF-539 (CNS Cancer), NCI one dose 10 µM; read-out: Cell growth inhibition %
Procedure, shortened: as §1

[3] = test system: SF-268; conditions: Homo sapiens; SF-268 (CNS Cancer), NCI one dose 10 µM; read-out: Cell growth inhibition %
Procedure, shortened: as §1

[4] = test system: MCF7; conditions: Homo sapiens; MCF7 (Breast Cancer), NCI one dose 10 µM; read-out: Cell growth inhibition %
Procedure, shortened: as §1

[5] = test system: ACHN; conditions: Homo sapiens; ACHN (Renal Cancer), NCI one dose 10 µM; read-out: Cell growth inhibition %
Procedure, shortened: as §1

[6] = test system: NCI-H226; conditions: Homo sapiens; NCI-H226 (Non-Small Cell Lung Cancer), NCI one dose 10 µM; read-out: Cell growth inhibition %
Procedure, shortened: as §1

[7] = test system: HS 578T; conditions: Homo sapiens; HS 578T (Breast Cancer), NCI one dose 10 µM; read-out: Cell growth inhibition %
Procedure, shortened: as §1

[8] = test system: OVCAR-5; conditions: Homo sapiens; OVCAR-5 (Ovarian Cancer), NCI one dose 10 µM; read-out: Cell growth inhibition %
Procedure, shortened: as §1

[9] = test system: LOX IMVI; conditions: Homo sapiens, LOX IMIV (Melanoma), NCI one dose 10 µM, read-out: Cell growth inhibition %
Procedure, shortened: as §1

[10] = test system: OVCAR-8; conditions: Homo sapiens; OVCAR-8 (Ovarian Cancer), NCI one dose 10 µM; read-out: Cell growth inhibition %
Procedure, shortened: as §1

[11] = test system: SW-620; conditions: Homo sapiens; SW-620 (Colon Cancer), NCI one dose 10 µM; read-out: Cell growth inhibition %
Procedure, shortened: as §1

[12] = test system: UACC-257; conditions: Homo sapiens; UACC-257 (Melanoma), NCI one dose 10 µM; read-out: Cell growth inhibition %
Procedure, shortened: as §1

[13] = test system: CCRF-CEM; conditions: Homo sapiens; CCRF-CEM (Leukemia), NCI one dose 10 µM; read-out: Cell growth inhibition %
Procedure, shortened: as §1

[14] = test system: A549/ATCC; conditions: Homo sapiens; A549/ATCC (Non-Small Cell Lung Cancer), NCI one dose 10 µM; read-out: Cell growth inhibition %
Procedure, shortened: as §1

[15] = test system: A498; conditions: Homo sapiens; A498 (Renal Cancer), NCI one dose 10 µM; read-out: Cell growth inhibition %
Procedure, shortened: as §1

[16] = test system: OVCAR-4; conditions: Homo sapiens; OVCAR-4 (Ovarian Cancer), NCI one dose 10 µM; read-out: Cell growth inhibition %
Procedure, shortened: as §1

[17] = test system: NCI-H322M; conditions: Homo sapiens; NCI-H322M (Non-Small Cell Lung Cancer), NCI one dose 10 µM; read-out: Cell growth inhibition %
Procedure, shortened: as §1

[18] = test system: IGROV1; conditions: Homo sapiens, IGROV-1; IGROV1 (Ovarian Cancer), NCI one dose 10 µM; read-out: Cell growth inhibition %
Procedure, shortened: as §1

[19] = test system: TK-10; conditions: Homo sapiens; TK-10 (Renal Cancer), NCI one dose 10 µM; read-out: Cell growth inhibition %
Procedure, shortened: as §1

[20] = test system: EKVX; conditions: Homo sapiens; EKVX (Non-Small Cell Lung Cancer), NCI one dose 10 µM; read-out: Cell growth inhibition %
Procedure, shortened: as §1

[21] = test system: HCC-2998; conditions: Homo sapiens; HCC-2998 (Colon Cancer), NCI one dose 10 µM; read-out: Cell growth inhibition %
Procedure, shortened: as §1

[22] = test system: DU-145; conditions: Homo sapiens; DU-145 (Prostate Cancer), NCI one dose 10 µM; read-out: Cell growth inhibition %
Procedure, shortened: as §1

[23] = test system: OVCAR-3; conditions: Homo sapiens; OVCAR-3 (Ovarian Cancer), NCI one dose 10 µM; read-out: Cell growth inhibition %
Procedure, shortened: as §1

[24] = test system: HCT-15; conditions: Homo sapiens; HCT-15 (Colon Cancer), NCI one dose 10 µM; read-out: Cell growth inhibition %
Procedure, shortened: as §1

[25] = test system: HT29; conditions: Homo sapiens, HT-29; HT29 (Colon Cancer), NCI one dose 10 µM; read-out: Cell growth inhibition %
Procedure, shortened: as §1

[26] = test system: MDA-MB-468; conditions: Homo sapiens; MDA-MB-468 (Breast Cancer), NCI one dose 10 µM; read-out: Cell growth inhibition %
Procedure, shortened: as §1

[27] = test system: NCI-H23; conditions: Homo sapiens; NCI-H23 (Non-Small Cell Lung Cancer), NCI one dose 10 µM; read-out: Cell growth inhibition %
Procedure, shortened: as §1

[28] = test system: NCI-H522; conditions: Homo sapiens; NCI-H522 (Non-Small Cell Lung Cancer), NCI one dose 10 µM; read-out: Cell growth inhibition %
Procedure, shortened: as §1

[29] = test system: 786-0; conditions: Homo sapiens; 786-0 (Renal Cancer), NCI one dose 10 µM; read-out: Cell growth inhibition %
Procedure, shortened: as §1

[30] = test system: KM12; conditions: Homo sapiens; KM12 (Colon Cancer), NCI one dose 10 µM; read-out: Cell growth inhibition %
Procedure, shortened: as §1

[31] = test system: U251; conditions: Homo sapiens, U-251; U251 (CNS Cancer), NCI one dose 10 µM; read-out: Cell growth inhibition %
Procedure, shortened: as §1

Compound: COc1ccc(-c2nc3cc(-c4nnc(SCC(=O)Nc5ccc(C(=O)/C=C/c6ccc(Cl)cc6)cc5)o4)ccc3[nH]2)cc1OC [Compound 7q, 2-{5-[2-(3,4-Dimethoxyphenyl)-1 H-benzo[d]imidazol-5-yl]-1,3,4-oxadiazol-2-ylthio}-N-{4-[(E)-3-(4-chlorophenyl)acryloyl]phenyl}acetamide]
- inhibition at 10 µM [1]: 1.95%
- inhibition at 10 µM [2]: 16.2%
- inhibition at 10 µM [3]: 0%
- inhibition at 10 µM [4]: 24.1%
- inhibition at 10 µM [5]: 5.74%
- inhibition at 10 µM [6]: 1.46%
- inhibition at 10 µM [7]: 3.98%
- inhibition at 10 µM [8]: 4.8%
- inhibition at 10 µM [9]: 96.8%
- inhibition at 10 µM [10]: 0%
- inhibition at 10 µM [11]: 0%
- inhibition at 10 µM [12]: 0%
- inhibition at 10 µM [13]: 0%
- inhibition at 10 µM [14]: 0%
- inhibition at 10 µM [15]: 0%
- inhibition at 10 µM [16]: 0%
- inhibition at 10 µM [17]: 4.21%
- inhibition at 10 µM [18]: 8.1%
- inhibition at 10 µM [19]: 0%
- inhibition at 10 µM [20]: 8.14%
- inhibition at 10 µM [21]: 0%
- inhibition at 10 µM [22]: 0%
- inhibition at 10 µM [23]: 0%
- inhibition at 10 µM [24]: 2.92%
- inhibition at 10 µM [25]: 0%
- inhibition at 10 µM [26]: 0%
- inhibition at 10 µM [27]: 0%
- inhibition at 10 µM [28]: 1.57%
- inhibition at 10 µM [29]: 0%
- inhibition at 10 µM [30]: 0%
- inhibition at 10 µM [31]: 0%
